± gives the expanded uncertainty stated by the source.
Conditions: 101.33 kPa, Liquid; for speed of sound: Sing-around technique in a fixed-path interferometer

What does the source list for `CCCCCO` [pentan-1-ol]?
mass density (283.15 K): 821.79 ± 0.92 kg/m3; speed of sound (283.15 K): 1325.9 ± 1.3 m/s; mass density (298.15 K): 810.83 ± 0.95 kg/m3; speed of sound (298.15 K): 1274.1 ± 1.2 m/s; mass density (313.15 K): 799.8 ± 0.98 kg/m3; speed of sound (313.15 K): 1225.5 ± 1.2 m/s

For `CCCC(C)O` (stereo not drawn) [pentan-2-ol], which mass density (283.15 K) is on record?
The mass density was 816.77 ± 1.9 kg/m3.

What about the speed of sound (283.15 K) of the same compound?
Its speed of sound is 1286.7 ± 2.1 m/s.

And the mass density (298.15 K)?
Its mass density is 804.97 ± 1.9 kg/m3.

What about the speed of sound (298.15 K) of the same compound?
The speed of sound was 1232.6 ± 2.1 m/s.

What about the mass density (313.15 K) of the same compound?
Its mass density is 792.42 ± 2 kg/m3.

And the speed of sound (313.15 K)?
Its speed of sound is 1168.1 ± 2.1 m/s.

For `C=C1CCC2CC1C2(C)C` (stereo not drawn) [β-pinene], which mass density (283.15 K) is on record?
Its mass density is 879.07 ± 0.77 kg/m3.

And the speed of sound (283.15 K)?
Its speed of sound is 1354.3 ± 1.3 m/s.

And the mass density (298.15 K)?
The mass density was 867.11 ± 0.8 kg/m3.

What about the speed of sound (298.15 K) of the same compound?
Its speed of sound is 1295.6 ± 1.3 m/s.

And the mass density (313.15 K)?
Its mass density is 854.87 ± 0.83 kg/m3.

And the speed of sound (313.15 K)?
Its speed of sound is 1236.3 ± 1.2 m/s.

— the NIST ThermoML archive (doi:10.1021/je060210c)
